According to ChEMBL document CHEMBL4138123, “Design, synthesis and biological evaluation of novel pyrazolochalcones as potential modulators of PI3K/Akt/mTOR pathway and inducers of apoptosis in breast cancer cells” (Eur J Med Chem, 2017):

Assays:
Format in all cases: functional
[1] = tested on: MOLT-4; assay: Cytotoxicity against human MOLT4 cells assessed as growth inhibition after 48 hrs by sulforhodamine B assay; details: MOLT-4, 48 h; for CC50: read-out: LC50 (the source's name)
[2] = tested on: HOP-62; assay: Cytotoxicity against human HOP62 cells assessed as growth inhibition after 48 hrs by sulforhodamine B assay; details: HOP-62, 48 h
[3] = tested on: SF-268; assay: Cytotoxicity against human SF268 cells assessed as growth inhibition after 48 hrs by sulforhodamine B assay; details: SF-268, 48 h; for CC50: read-out: LC50 (the source's name)
[4] = tested on: LOX IMVI; assay: Cytotoxicity against human LOXIMVI cells assessed as growth inhibition after 48 hrs by sulforhodamine B assay
[5] = tested on: MDA-MB-435; assay: Cytotoxicity against human MDA-MB-435 cells assessed as growth inhibition after 48 hrs by sulforhodamine B assay; details: MDA-MB-435, 48 h
[6] = tested on: SK-MEL-28; assay: Cytotoxicity against human SK-MEL-28 cells assessed as growth inhibition after 48 hrs by sulforhodamine B assay; details: SK-MEL-28, 48 h
[7] = tested on: 786-0; assay: Cytotoxicity against human 786-0 cells assessed as growth inhibition after 48 hrs by sulforhodamine B assay; details: 786-0, 48 h
[8] = tested on: A498; assay: Cytotoxicity against human A498 cells assessed as growth inhibition after 48 hrs by sulforhodamine B assay; details: A498, 48 h
[9] = tested on: DU-145; assay: Cytotoxicity against human DU145 cells assessed as growth inhibition after 48 hrs by sulforhodamine B assay; details: DU-145, 48 h; for CC50: read-out: LC50 (the source's name)
[10] = tested on: T47D; assay: Cytotoxicity against human T47D cells assessed as growth inhibition after 48 hrs by sulforhodamine B assay
[11] = tested on: A498; assay: Cytotoxicity against human A498 cells assessed as cell growth at 0.01 uM after 48 hrs by sulforhodamine B assay relative to control; details: A498, 48 h, read-out: Activity
[12] = tested on: OVCAR-4; assay: Cytotoxicity against human OVCAR4 cells assessed as cell growth at 0.01 uM after 48 hrs by sulforhodamine B assay relative to control; details: OVCAR-4, 48 h, read-out: Activity
[13] = tested on: M14; assay: Cytotoxicity against human M14 cells assessed as cell growth at 0.01 uM after 48 hrs by sulforhodamine B assay relative to control; details: M14, 48 h, read-out: Activity
[14] = tested on: NCI-H322M; assay: Cytotoxicity against human NCI-H322M cells assessed as cell growth at 0.01 uM after 48 hrs by sulforhodamine B assay relative to control; details: read-out: Activity
[15] = tested on: MOLT-4; assay: Cytotoxicity against human MOLT4 cells assessed as cell growth at 0.01 uM after 48 hrs by sulforhodamine B assay relative to control; details: MOLT-4, 48 h, read-out: Activity
[16] = tested on: MOLT-4; assay: Cytotoxicity against human MOLT4 cells assessed as cell growth at 0.1 uM after 48 hrs by sulforhodamine B assay relative to control; details: MOLT-4, 48 h, read-out: Activity
[17] = tested on: UACC-257; assay: Cytotoxicity against human UACC257 cells assessed as cell growth at 0.1 uM after 48 hrs by sulforhodamine B assay relative to control; details: UACC-257, 48 h, read-out: Activity
[18] = tested on: OVCAR-5; assay: Cytotoxicity against human OVCAR5 cells assessed as cell growth at 0.1 uM after 48 hrs by sulforhodamine B assay relative to control; details: OVCAR-5, 48 h, read-out: Activity
[19] = tested on: 786-0; assay: Cytotoxicity against human 786-0 cells assessed as cell growth at 0.1 uM after 48 hrs by sulforhodamine B assay relative to control; details: 786-0, 48 h, read-out: Activity
[20] = tested on: RXF 393; assay: Cytotoxicity against human RXF393 cells assessed as cell growth at 0.1 uM after 48 hrs by sulforhodamine B assay relative to control; details: RXF 393, 48 h, read-out: Activity
[21] = tested on: BT-549; assay: Cytotoxicity against human BT549 cells assessed as cell growth at 0.1 uM after 48 hrs by sulforhodamine B assay relative to control; details: BT-549, 48 h, read-out: Activity
[22] = tested on: T47D; assay: Cytotoxicity against human T47D cells assessed as cell growth at 0.1 uM after 48 hrs by sulforhodamine B assay relative to control; details: read-out: Activity
[23] = tested on: MDA-MB-468; assay: Cytotoxicity against human MDA-MB-468 cells assessed as cell growth at 0.1 uM after 48 hrs by sulforhodamine B assay relative to control; details: MDA-MB-468, 48 h, read-out: Activity
[24] = tested on: SF-268; assay: Cytotoxicity against human SF268 cells assessed as cell growth at 1 uM after 48 hrs by sulforhodamine B assay relative to control; details: SF-268, 48 h, read-out: Activity
[25] = tested on: Malme-3M; assay: Cytotoxicity against human MALME-3M cells assessed as cell growth at 1 uM after 48 hrs by sulforhodamine B assay relative to control; details: read-out: Activity
[26] = tested on: MDA-MB-435; assay: Cytotoxicity against human MDA-MB-435 cells assessed as cell growth at 1 uM after 48 hrs by sulforhodamine B assay relative to control; details: MDA-MB-435, 48 h, read-out: Activity
[27] = tested on: OVCAR-5; assay: Cytotoxicity against human OVCAR5 cells assessed as cell growth at 1 uM after 48 hrs by sulforhodamine B assay relative to control; details: OVCAR-5, 48 h, read-out: Activity
[28] = tested on: OVCAR-8; assay: Cytotoxicity against human OVCAR8 cells assessed as cell growth at 1 uM after 48 hrs by sulforhodamine B assay relative to control; details: OVCAR-8, 48 h, read-out: Activity
[29] = tested on: K562; assay: Cytotoxicity against human K562 cells assessed as cell growth at 10 uM after 48 hrs by sulforhodamine B assay relative to control; details: K562, 48 h, read-out: Activity
[30] = tested on: HCC 2998; assay: Cytotoxicity against human HCC2998 cells assessed as cell growth at 10 uM after 48 hrs by sulforhodamine B assay relative to control; details: HCC 2998, 48 h, read-out: Activity
[31] = tested on: SF-268; assay: Cytotoxicity against human SF268 cells assessed as cell growth at 10 uM after 48 hrs by sulforhodamine B assay relative to control; details: SF-268, 48 h, read-out: Activity
[32] = tested on: PC-3; assay: Cytotoxicity against human PC3 cells assessed as cell growth at 10 uM after 48 hrs by sulforhodamine B assay relative to control; details: PC-3, 48 h, read-out: Activity
[33] = tested on: KM12; assay: Cytotoxicity against human KM12 cells assessed as cell growth at 100 uM after 48 hrs by sulforhodamine B assay relative to control; details: KM12, 48 h, read-out: Activity
[34] = tested on: SNB-19; assay: Cytotoxicity against human SNB19 cells assessed as cell growth at 100 uM after 48 hrs by sulforhodamine B assay relative to control; details: SNB-19, 48 h, read-out: Activity
[35] = tested on: SK-MEL-28; assay: Cytotoxicity against human SK-MEL-28 cells assessed as cell growth at 100 uM after 48 hrs by sulforhodamine B assay relative to control; details: SK-MEL-28, 48 h, read-out: Activity

COc1ccc(C(=O)/C=C/c2cc(-c3ccc4c(c3)OCO4)n[nH]2)cc1OC
TGI [1]: 10.3 µM | CC50 [1]: > 100 µM | LC50 [2]: 25.8 µM | TGI [2]: 5.6 µM | TGI [3]: 7.61 µM | CC50 [3]: 40.5 µM | LC50 [4]: 8.46 µM | TGI [4]: 4.08 µM | LC50 [5]: 99 µM | TGI [5]: 10 µM | LC50 [6]: 48.6 µM | TGI [6]: 19.3 µM | LC50 [7]: 42.3 µM | TGI [7]: 11.4 µM | LC50 [8]: 13.9 µM | TGI [8]: 4.23 µM | GI50 [9]: 1.86 µM | TGI [9]: 4.27 µM | CC50 [9]: 9.8 µM | GI50 [10]: 3.23 µM | LC50 [10]: > 100 µM | TGI [10]: 26.1 µM | growth at 0.01 µM [11]: 78% | growth at 0.01 µM [12]: 96% | growth at 0.01 µM [13]: 98% | growth at 0.01 µM [14]: 93% | growth at 0.01 µM [15]: 97% | growth at 0.1 µM [16]: 97% | growth at 0.1 µM [17]: 95% | growth at 0.1 µM [18]: 95% | growth at 0.1 µM [19]: 95% | growth at 0.1 µM [20]: 97% | growth at 0.1 µM [21]: 99% | growth at 0.1 µM [22]: 94% | growth at 0.1 µM [23]: 90% | growth at 1 µM [24]: 92% | growth at 1 µM [25]: 106% | growth at 1 µM [26]: 96% | growth at 1 µM [27]: 86% | growth at 1 µM [28]: 89% | growth at 10 µM [29]: 4% | growth at 10 µM [30]: 27% | growth at 10 µM [31]: -12% | growth at 10 µM [32]: 16% | growth at 100 µM [33]: -90% | growth at 100 µM [34]: -95% | growth at 100 µM [35]: -89%

COc1cc(-c2cc(/C=C/C(=O)c3ccc(N)cc3)[nH]n2)cc(OC)c1OC
GI50 [1]: 1.91 µM | TGI [1]: 8.51 µM | CC50 [1]: > 100 µM | GI50 [2]: 1.77 µM | LC50 [2]: 8.7 µM | TGI [2]: 3.92 µM | GI50 [3]: 1.69 µM | TGI [3]: 3.93 µM | CC50 [3]: 9.16 µM | GI50 [4]: 1.06 µM | LC50 [4]: 6.72 µM | TGI [4]: 3.28 µM | GI50 [5]: 1.66 µM | LC50 [5]: 6.2 µM | TGI [5]: 3.21 µM | GI50 [6]: 1.86 µM | LC50 [6]: 8.93 µM | TGI [6]: 4.08 µM | GI50 [7]: 2.04 µM | LC50 [7]: 27.6 µM | TGI [7]: 6.49 µM | GI50 [8]: 1.64 µM | LC50 [8]: 13.4 µM | TGI [8]: 4.33 µM | GI50 [9]: 1.65 µM | TGI [9]: 4.05 µM | CC50 [9]: 9.95 µM | GI50 [10]: 1.42 µM | LC50 [10]: > 100 µM | TGI [10]: 4.3 µM | growth at 0.01 µM [11]: 91% | growth at 0.01 µM [12]: 85% | growth at 0.01 µM [13]: 94% | growth at 0.01 µM [14]: 95% | growth at 0.01 µM [15]: 101% | growth at 0.1 µM [16]: 102% | growth at 0.1 µM [17]: 93% | growth at 0.1 µM [18]: 103% | growth at 0.1 µM [19]: 94% | growth at 0.1 µM [20]: 91% | growth at 0.1 µM [21]: 93% | growth at 0.1 µM [22]: 85% | growth at 0.1 µM [23]: 83% | growth at 1 µM [24]: 81% | growth at 1 µM [25]: 93% | growth at 1 µM [26]: 88% | growth at 1 µM [27]: 89% | growth at 1 µM [28]: 81% | growth at 10 µM [29]: 2% | growth at 10 µM [30]: -86% | growth at 10 µM [31]: -55% | growth at 10 µM [32]: 1% | growth at 100 µM [33]: -79% | growth at 100 µM [34]: -94% | growth at 100 µM [35]: -83%
